Test results as given in patent US20240101570A1 (AMGEN INC., priority 2020, published 2024).
pIC50: −log10 of the molar value.

Assays:
HCT116 MTAP null cells = assay: HCT116 MTAP null cell proliferation / viability (CellTiter-Glo, 6 days); assay type: cell-based; conditions: HCT116-MTAP null, 144 h, HCT116 MTAP null cells, 6 days, CellTiter-Glo; read-out: HCT-116 MTAP null IC50
Procedure, shortened: (§1)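 Viability read by CellTiter-Glo after 6-day compound exposure of MTAP-null and wild-type HCT116 cells grown in RPMI 1640 with 10% FBS. Dosing used 1:3 steps from 1 or 10 μM (8-9 points) or 1:2 steps from 10 or 50 μM (22 points); IC50 taken where fitted curve crosses 50% of control.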

HCT116 WT cells = assay: HCT116 WT cell proliferation / viability (CellTiter-Glo, 6 days); assay type: cell-based; conditions: Homo sapiens, HCT-116, 144 h, HCT116 WT cells, 6 days, CellTiter-Glo; read-out: HCT-116 WT IC50
Procedure, shortened: as §1

pIC50 (HCT116 MTAP null cells)	pIC50 (HCT116 WT cells)	Structure (SMILES)
7.66	5.93	C[C@H](c1cnc(C(F)(F)F)cn1)N(C)C(=O)c1cc2c(cc1F)nc(N)c1cnn(C)c12 [Example 780, 4-amino-7-fluoro-N,1-dimethyl-N-((1R)-1-(5-(trifluoromethyl)-2-pyrazinyl)ethyl)-1H-pyrazolo[4,3-c]quinoline-8-carboxamide]
7.43	5.88	CCN(C(=O)c1cc2c3c(c(N)nc2cc1F)COC3)[C@H](C)c1ccc(C(F)(F)F)nn1 [Example 781, 4-amino-N-ethyl-7-fluoro-N-((1R)-1-(6-(trifluoromethyl)-3-pyridazinyl)ethyl)-1,3-dihydrofuro[3,4-c]quinoline-8-carboxamide]
7.10	5.11	CN(Cc1ccc(C(F)(F)F)nc1F)C(=O)c1cc2c(cc1F)nc(N)c1cnn(C)c12 [Example 782, 4-amino-7-fluoro-N-((2-fluoro-6-(trifluoromethyl)-3-pyridinyl)methyl)-N,1-dimethyl-1H-pyrazolo[4,3-c]quinoline-8-carboxamide]
6.06	4.79	CCN(C(=O)c1ccc2nc(N)c3c(c2c1)COC3)[C@@H](c1ccc(C(F)(F)F)nn1)C1CC1 [Example 783, 4-amino-N-((R)-cyclopropyl(6-(trifluoromethyl)-3-pyridazinyl)methyl)-N-ethyl-1,3-dihydrofuro[3,4-c]quinoline-8-carboxamide]
7.66	6.22	CCN(C(=O)c1cc2c3c(c(N)nc2cc1F)[C@@H](C)OC3)[C@H](C)c1ccc(C(F)(F)F)nn1 [Example 784, (3R)-4-amino-N-ethyl-7-fluoro-3-methyl-N-((1R)-1-(6-(trifluoromethyl)-3-pyridazinyl)ethyl)-1,3-dihydrofuro[3,4-c]quinoline-8-carboxamide]
6.07	4.70	CCN(C(=O)c1cc2c3c(c(N)nc2cc1F)[C@H](C)OC3)[C@H](C)c1ccc(C(F)(F)F)nn1 [Example 785, (3S)-4-amino-N-ethyl-7-fluoro-3-methyl-N-((1R)-1-(6-(trifluoromethyl)-3-pyridazinyl)ethyl)-1,3-dihydrofuro[3,4-c]quinoline-8-carboxamide]
6.90	5.13	C[C@H](c1ccc(C(F)(F)C(F)(F)F)cc1)N(C)C(=O)c1cc2c(cn1)nc(N)c1c2cnn1C [Example 786, 4-amino-N,3-dimethyl-N-((1R)-1-(4-(pentafluoroethyl)phenyl)ethyl)-3H-pyrazolo[3,4-c][1,7]naphthyridine-8-carboxamide]
6.06	5.05	C[C@@H](c1ccc(C(F)(F)C(F)(F)F)cc1)N(C)C(=O)c1cc2c(cc1F)nc(N)c1cnn(C)c12 [Example 787, 4-amino-7-fluoro-N,1-dimethyl-N-((1S)-1-(4-(pentafluoroethyl)phenyl)ethyl)-1H-pyrazolo[4,3-c]quinoline-8-carboxamide]
8.10	6.87	C[C@H](c1ccc(C(F)(F)C(F)(F)F)cc1)N(C)C(=O)c1cc2c(cc1F)nc(N)c1cnn(C)c12 [Example 788, 4-amino-7-fluoro-N,1-dimethyl-N-((1R)-1-(4-(pentafluoroethyl)phenyl)ethyl)-1H-pyrazolo[4,3-c]quinoline-8-carboxamide]
7.08	5.16	CN(Cc1ccc(-c2cnn(C(F)(F)F)c2)cn1)C(=O)c1cc2c(cc1F)nc(N)c1cnn(C)c12 [Example 789, 4-amino-7-fluoro-N,1-dimethyl-N-((5-(1-(trifluoromethyl)-1H-pyrazol-4-yl)-2-pyridinyl)methyl)-1H-pyrazolo[4,3-c]quinoline-8-carboxamide]
6.11	4.33	Cn1ncc2c(N)nc3ccc(C(=O)N(Cc4ccc(C(F)(F)F)nn4)C4CC4)cc3c21 [Example 790, 4-amino-N-cyclopropyl-1-methyl-N-((6-(trifluoromethyl)-3-pyridazinyl)methyl)-1H-pyrazolo[4,3-c]quinoline-8-carboxamide]
7.96	6.47	CN(Cc1ccc(C(F)(F)F)cn1)C(=O)c1cc2c(cc1Cl)nc(N)c1cnn(C)c12 [Example 791, 4-amino-7-chloro-N,1-dimethyl-N-((5-(trifluoromethyl)-2-pyridinyl)methyl)-1H-pyrazolo[4,3-c]quinoline-8-carboxamide]
7.52	5.63	CN(Cc1ccc(C(F)(F)F)nn1)C(=O)c1cc2c(cc1Cl)nc(N)c1cnn(C)c12 [Example 792, 4-amino-7-chloro-N,1-dimethyl-N-((6-(trifluoromethyl)-3-pyridazinyl)methyl)-1H-pyrazolo[4,3-c]quinoline-8-carboxamide]
7.96	6.53	CCN(Cc1ccc(C(F)(F)F)cn1)C(=O)c1cc2c(cc1Cl)nc(N)c1cnn(C)c12 [Example 793, 4-amino-7-chloro-N-ethyl-1-methyl-N-((5-(trifluoromethyl)-2-pyridinyl)methyl)-1H-pyrazolo[4,3-c]quinoline-8-carboxamide]
7.70	6.30	CCN(Cc1ccc(C(F)(F)F)nn1)C(=O)c1cc2c(cc1Cl)nc(N)c1cnn(C)c12 [Example 794, 4-amino-7-chloro-N-ethyl-1-methyl-N-((6-(trifluoromethyl)-3-pyridazinyl)methyl)-1H-pyrazolo[4,3-c]quinoline-8-carboxamide]
8.10	6.42	Cn1ncc2c(N)nc3cc(Cl)c(C(=O)N(Cc4ccc(C(F)(F)F)cn4)C4CC4)cc3c21 [Example 795, 4-amino-7-chloro-N-cyclopropyl-1-methyl-N-((5-(trifluoromethyl)-2-pyridinyl)methyl)-1H-pyrazolo[4,3-c]quinoline-8-carboxamide]
7.47	5.78	Cn1ncc2c(N)nc3cc(Cl)c(C(=O)N(Cc4ccc(C(F)(F)F)nn4)C4CC4)cc3c21 [Example 796, 4-amino-7-chloro-N-cyclopropyl-1-methyl-N-((6-(trifluoromethyl)-3-pyridazinyl)methyl)-1H-pyrazolo[4,3-c]quinoline-8-carboxamide]
7.39	6.12	Cn1ncc2c(N)nc3ccc(C(=O)N(Cc4ccc(C(F)(F)F)cn4)CC(F)(F)F)cc3c21 [Example 797, 4-amino-1-methyl-N-(2,2,2-trifluoroethyl)-N-((5-(trifluoromethyl)-2-pyridinyl)methyl)-1H-pyrazolo[4,3-c]quinoline-8-carboxamide]
8.00	6.82	Cn1ncc2c(N)nc3cc(Cl)c(C(=O)N(Cc4ccc(C(F)(F)F)cn4)C4CCC4)cc3c21 [Example 798, 4-amino-7-chloro-N-cyclobutyl-1-methyl-N-((5-(trifluoromethyl)-2-pyridinyl)methyl)-1H-pyrazolo[4,3-c]quinoline-8-carboxamide]
8.10	6.58	Cn1ncc2c(N)nc3cc(Cl)c(C(=O)N(Cc4ccc(C(F)(F)F)nn4)C4CCC4)cc3c21 [Example 799, 4-amino-7-chloro-N-cyclobutyl-1-methyl-N-((6-(trifluoromethyl)-3-pyridazinyl)methyl)-1H-pyrazolo[4,3-c]quinoline-8-carboxamide]
8.15	6.61	Cn1ncc2c(N)nc3cc(F)c(C(=O)N(Cc4ccc(C(F)(F)F)cn4)CC(F)(F)F)cc3c21 [Example 800, 4-amino-7-fluoro-1-methyl-N-(2,2,2-trifluoroethyl)-N-((5-(trifluoromethyl)-2-pyridinyl)methyl)-1H-pyrazolo[4,3-c]quinoline-8-carboxamide]
6.82	4.87	Cn1ncc2c(N)nc3cc(F)c(C(=O)N(Cc4cocn4)C4CCC4)cc3c21 [Example 801, 4-amino-N-cyclobutyl-7-fluoro-1-methyl-N-(1,3-oxazol-4-ylmethyl)-1H-pyrazolo[4,3-c]quinoline-8-carboxamide]
7.68	5.86	CN(Cc1ccc(C(F)(F)F)cn1)C(=O)c1cc2c(cc1F)nc(N)c1cnn(C)c12 [Example 802, 4-amino-7-fluoro-N,1-dimethyl-N-((5-(trifluoromethyl)-2-pyridinyl)methyl)-1H-pyrazolo[4,3-c]quinoline-8-carboxamide]
7.92	6.42	Cn1ncc2c(N)nc3cc(F)c(C(=O)N(Cc4ccc(C(F)(F)F)cn4)C4CC4)cc3c21 [Example 803, 4-amino-N-cyclopropyl-7-fluoro-1-methyl-N-((5-(trifluoromethyl)-2-pyridinyl)methyl)-1H-pyrazolo[4,3-c]quinoline-8-carboxamide]
7.59	5.74	Cn1ncc2c(N)nc3cc(F)c(C(=O)N(Cc4ccc(C(F)(F)F)nn4)C4CC4)cc3c21 [Example 804, 4-amino-N-cyclopropyl-7-fluoro-1-methyl-N-((6-(trifluoromethyl)-3-pyridazinyl)methyl)-1H-pyrazolo[4,3-c]quinoline-8-carboxamide]
8.10	6.92	CC(C)N(Cc1ccc(C(F)(F)F)cn1)C(=O)c1cc2c(cc1F)nc(N)c1cnn(C)c12 [Example 805, 4-amino-7-fluoro-1-methyl-N-(2-propanyl)-N-((5-(trifluoromethyl)-2-pyridinyl)methyl)-1H-pyrazolo[4,3-c]quinoline-8-carboxamide]
7.25	5.50	COc1nc(C(F)(F)F)ccc1CN(C)C(=O)c1cc2c(cc1F)nc(N)c1cnn(C)c12 [Example 806, 4-amino-7-fluoro-N-((2-methoxy-6-(trifluoromethyl)-3-pyridinyl)methyl)-N,1-dimethyl-1H-pyrazolo[4,3-c]quinoline-8-carboxamide]
